{
  "source": "patent US6765085B2",
  "about": "“Receptor kinase, BIN1” (The Salk Institute for Biological Studies, priority 1997, dated 2004)",
  "key": {"BIN1-GFP [1]": {"molecular_target": "T1, BIN1-GFP (Arabidopsis thaliana, UniProt O22476)", "T1 sequence (O22476 with tags, fused parts or gaps)": "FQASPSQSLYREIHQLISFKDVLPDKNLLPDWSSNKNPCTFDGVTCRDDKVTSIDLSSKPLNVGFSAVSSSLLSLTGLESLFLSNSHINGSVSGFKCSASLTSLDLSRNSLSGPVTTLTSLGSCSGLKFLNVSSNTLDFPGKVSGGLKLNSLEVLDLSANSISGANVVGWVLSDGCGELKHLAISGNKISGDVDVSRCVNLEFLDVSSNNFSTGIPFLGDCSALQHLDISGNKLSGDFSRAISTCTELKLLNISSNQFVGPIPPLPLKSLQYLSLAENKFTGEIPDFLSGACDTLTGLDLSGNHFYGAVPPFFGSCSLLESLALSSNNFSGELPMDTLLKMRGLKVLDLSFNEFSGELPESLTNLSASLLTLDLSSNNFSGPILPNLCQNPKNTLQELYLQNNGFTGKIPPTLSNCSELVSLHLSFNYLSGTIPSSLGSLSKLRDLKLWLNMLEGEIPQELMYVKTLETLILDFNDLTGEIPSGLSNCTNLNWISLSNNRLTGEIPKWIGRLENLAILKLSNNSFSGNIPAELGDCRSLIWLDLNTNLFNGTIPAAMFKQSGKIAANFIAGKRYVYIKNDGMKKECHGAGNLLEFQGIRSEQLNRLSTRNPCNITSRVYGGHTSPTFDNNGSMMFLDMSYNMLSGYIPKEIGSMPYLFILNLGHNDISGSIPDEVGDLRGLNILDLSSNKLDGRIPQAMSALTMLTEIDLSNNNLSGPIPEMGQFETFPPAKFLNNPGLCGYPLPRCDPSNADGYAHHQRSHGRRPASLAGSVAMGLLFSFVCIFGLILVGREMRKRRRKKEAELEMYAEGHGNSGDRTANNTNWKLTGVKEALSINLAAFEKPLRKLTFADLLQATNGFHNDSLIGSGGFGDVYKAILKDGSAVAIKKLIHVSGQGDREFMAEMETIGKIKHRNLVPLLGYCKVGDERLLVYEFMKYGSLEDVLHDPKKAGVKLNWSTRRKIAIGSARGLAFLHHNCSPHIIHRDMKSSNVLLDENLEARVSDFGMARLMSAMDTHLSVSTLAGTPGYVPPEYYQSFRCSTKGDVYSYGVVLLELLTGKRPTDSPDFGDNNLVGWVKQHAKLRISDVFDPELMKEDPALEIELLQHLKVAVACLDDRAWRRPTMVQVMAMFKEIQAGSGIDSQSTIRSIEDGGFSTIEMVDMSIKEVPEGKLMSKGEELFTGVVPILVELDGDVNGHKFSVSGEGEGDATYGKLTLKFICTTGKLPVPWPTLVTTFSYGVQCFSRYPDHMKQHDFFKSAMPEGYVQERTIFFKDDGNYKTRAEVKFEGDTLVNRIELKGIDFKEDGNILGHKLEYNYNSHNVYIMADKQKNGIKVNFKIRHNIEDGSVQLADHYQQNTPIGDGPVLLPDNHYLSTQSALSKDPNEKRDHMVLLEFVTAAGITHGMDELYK", "conditions": "membrane fractions of BIN1-GFP transgenic plants"}, "[2]": {"molecular_target": "T2, BIN1-116, Q583-stop (70-aa island) (Arabidopsis thaliana, UniProt O22476)", "T2 construct": "microsomal fractions of wild type (WT), det2, BIN1-6, BIN1-116, BIN1-104, and BIN1-102 mutant plants; from tissue; host or cells: microsomal fractions of BIN1-116 mutant Arabidopsis plants", "T2 sequence (O22476 24-582 limits assumed)": "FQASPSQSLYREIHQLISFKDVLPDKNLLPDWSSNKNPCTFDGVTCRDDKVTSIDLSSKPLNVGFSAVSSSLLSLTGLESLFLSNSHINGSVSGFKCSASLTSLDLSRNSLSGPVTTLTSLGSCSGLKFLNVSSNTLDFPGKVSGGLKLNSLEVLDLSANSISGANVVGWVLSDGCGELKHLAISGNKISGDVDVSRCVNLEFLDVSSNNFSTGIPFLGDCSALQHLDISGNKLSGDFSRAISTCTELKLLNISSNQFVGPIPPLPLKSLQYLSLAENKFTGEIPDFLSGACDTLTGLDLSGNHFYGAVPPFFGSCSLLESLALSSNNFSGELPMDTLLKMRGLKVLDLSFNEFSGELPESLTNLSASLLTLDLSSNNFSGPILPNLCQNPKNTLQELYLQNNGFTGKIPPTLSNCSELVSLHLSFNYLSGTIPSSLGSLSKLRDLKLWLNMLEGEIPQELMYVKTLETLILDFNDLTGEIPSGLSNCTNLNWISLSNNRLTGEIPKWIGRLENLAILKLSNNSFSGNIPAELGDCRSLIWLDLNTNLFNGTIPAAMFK", "assay_type": "binding", "conditions": "BIN1-116 mutant, compared with wild type", "text": "(§1) Mutations in large numbers of BIN1 alleles implicate the functional importance of the cytoplasmic kinase domain and the 70-aa island of BIN1's extracellular domain.\n(§2) Tetrahedron Lett. 39, 7525-7528 (1998). […] Science 288, 2360-3 (2000)."}, "[3]": {"molecular_target": "T3, BIN1-6, G644-D (70-aa island) (Arabidopsis thaliana, UniProt O22476, G644D)", "T3 construct": "microsomal fractions of wild type (WT), det2, BIN1-6, BIN1-116, BIN1-104, and BIN1-102 mutant plants; from tissue; host or cells: microsomal fractions of BIN1-6 mutant Arabidopsis plants", "T3 sequence (O22476 24-1196 G644D)": "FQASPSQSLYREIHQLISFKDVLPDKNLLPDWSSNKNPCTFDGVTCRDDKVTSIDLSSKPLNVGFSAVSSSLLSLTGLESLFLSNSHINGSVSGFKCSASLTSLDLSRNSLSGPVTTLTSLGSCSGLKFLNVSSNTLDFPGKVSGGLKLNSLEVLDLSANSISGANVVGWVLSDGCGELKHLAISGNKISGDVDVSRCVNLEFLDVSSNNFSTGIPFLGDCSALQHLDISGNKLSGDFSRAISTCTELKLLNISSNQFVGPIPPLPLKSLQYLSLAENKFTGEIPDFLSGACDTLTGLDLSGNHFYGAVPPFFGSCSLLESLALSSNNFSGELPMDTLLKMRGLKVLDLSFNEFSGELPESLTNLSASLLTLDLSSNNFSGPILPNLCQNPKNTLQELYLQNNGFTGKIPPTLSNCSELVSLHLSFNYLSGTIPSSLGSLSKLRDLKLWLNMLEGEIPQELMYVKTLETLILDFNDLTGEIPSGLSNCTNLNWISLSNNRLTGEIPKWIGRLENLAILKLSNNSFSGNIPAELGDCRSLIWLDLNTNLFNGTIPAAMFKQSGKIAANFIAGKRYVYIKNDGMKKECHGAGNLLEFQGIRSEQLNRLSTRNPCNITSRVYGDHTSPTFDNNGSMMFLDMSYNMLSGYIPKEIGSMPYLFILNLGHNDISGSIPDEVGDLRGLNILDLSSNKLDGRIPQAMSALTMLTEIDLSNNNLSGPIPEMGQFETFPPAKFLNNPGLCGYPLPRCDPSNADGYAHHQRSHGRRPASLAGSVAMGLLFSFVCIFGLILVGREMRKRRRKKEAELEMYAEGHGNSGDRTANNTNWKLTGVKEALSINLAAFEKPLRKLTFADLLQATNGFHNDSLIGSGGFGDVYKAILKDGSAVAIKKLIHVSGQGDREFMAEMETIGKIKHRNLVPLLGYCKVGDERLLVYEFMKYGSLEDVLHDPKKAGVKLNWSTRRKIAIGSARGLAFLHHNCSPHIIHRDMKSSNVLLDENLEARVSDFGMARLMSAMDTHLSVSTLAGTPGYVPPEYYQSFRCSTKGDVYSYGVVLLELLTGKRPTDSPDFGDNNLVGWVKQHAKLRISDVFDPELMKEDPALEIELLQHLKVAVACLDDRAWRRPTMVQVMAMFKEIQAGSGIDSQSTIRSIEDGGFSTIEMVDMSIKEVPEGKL", "assay_type": "binding", "conditions": "BIN1-6 mutant, compared with wild type", "text": "as §1, §2"}, "BIN1 [4]": {"tested_on": "BIN1", "assay": "BL induced BIN1 phosphorylation in seedlings (mobility shift on SDS-PAGE, immunoblot)", "assay_type": "in vivo, Arabidopsis", "conditions": "BIN1-6 and BIN1117 mutant seedlings, 1 μM BL for 1 hour", "experimental": "(§3) Proteins were analyzed by 4% SDS-PAGE, blotted, and probed with anti-BIN1N antibody. b.\n(§4) Samples were analyzed by SDS-PAGE using 4% gels and western blotting as described above. […] For phosphatase treatment, SDS was removed from protein samples using the SDS-OUT kit (Pierce), and the proteins were then treated with alkaline phosphatase (Boehringer Mannheim) and protein phosphatase I (PPI, New England Biolab) under conditions recommended by the manufacturer and as described."}, "BIN1 [5]": {"molecular_target": "T4, BIN1 (Arabidopsis thaliana, UniProt O22476)", "T4 sequence (O22476 24-1196)": "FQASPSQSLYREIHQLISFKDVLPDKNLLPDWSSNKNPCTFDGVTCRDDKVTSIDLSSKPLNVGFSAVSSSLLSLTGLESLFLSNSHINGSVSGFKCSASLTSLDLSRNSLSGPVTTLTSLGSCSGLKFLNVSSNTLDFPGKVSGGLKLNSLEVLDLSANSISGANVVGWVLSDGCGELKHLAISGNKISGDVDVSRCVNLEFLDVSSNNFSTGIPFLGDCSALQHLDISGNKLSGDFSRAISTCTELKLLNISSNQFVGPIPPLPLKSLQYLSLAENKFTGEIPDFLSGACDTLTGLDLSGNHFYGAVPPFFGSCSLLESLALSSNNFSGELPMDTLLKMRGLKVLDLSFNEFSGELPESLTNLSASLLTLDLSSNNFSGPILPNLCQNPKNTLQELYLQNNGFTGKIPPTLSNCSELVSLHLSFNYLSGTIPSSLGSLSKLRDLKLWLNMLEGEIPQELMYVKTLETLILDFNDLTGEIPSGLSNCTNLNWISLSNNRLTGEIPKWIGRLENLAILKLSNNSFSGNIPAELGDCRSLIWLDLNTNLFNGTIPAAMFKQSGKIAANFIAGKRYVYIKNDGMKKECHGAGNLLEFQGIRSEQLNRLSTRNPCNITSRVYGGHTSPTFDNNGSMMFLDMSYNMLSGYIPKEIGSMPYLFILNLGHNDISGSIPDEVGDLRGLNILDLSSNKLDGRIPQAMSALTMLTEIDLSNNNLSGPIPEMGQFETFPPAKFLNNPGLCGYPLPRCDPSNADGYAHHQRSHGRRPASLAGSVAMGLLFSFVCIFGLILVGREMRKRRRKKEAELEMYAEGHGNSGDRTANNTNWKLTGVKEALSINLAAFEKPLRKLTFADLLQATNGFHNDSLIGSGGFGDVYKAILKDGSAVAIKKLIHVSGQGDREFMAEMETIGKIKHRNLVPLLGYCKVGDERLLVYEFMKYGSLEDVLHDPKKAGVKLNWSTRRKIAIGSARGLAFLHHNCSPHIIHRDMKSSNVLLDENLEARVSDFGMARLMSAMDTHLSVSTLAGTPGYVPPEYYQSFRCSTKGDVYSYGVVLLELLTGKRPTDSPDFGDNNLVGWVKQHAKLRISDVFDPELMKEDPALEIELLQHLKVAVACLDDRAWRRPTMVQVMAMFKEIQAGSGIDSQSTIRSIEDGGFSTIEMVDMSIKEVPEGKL", "assay": "BL induced BIN1 phosphorylation in seedlings (mobility shift on SDS-PAGE, immunoblot)", "assay_type": "in vivo", "parameters": "from tissue; host or cells: wild-type Arabidopsis seedlings (microsomal fractions in A2; whole seedlings in A10)", "conditions": "det2 BL biosynthetic mutant seedlings, 1 μM BL for 1 hour", "experimental": "as §3, §4"}, "BIN1 [6]": {"molecular_target": "T4, BIN1", "conditions": "membrane fractions of wild-type plants"}, "BIN1 [7]": {"molecular_target": "T4, BIN1", "assay": "Binding kinetic studies of specific BL binding", "parameters": "from tissue; host or cells: wild-type Arabidopsis seedlings (microsomal fractions in A2; whole seedlings in A10)", "text": "as §2"}, "plants": {"tested_on": "plants", "conditions": "cited from earlier work"}, "BIN1-GFP [8]": {"molecular_target": "T1, BIN1-GFP", "assay_type": "binding", "parameters": "expressed in transfected cells; host or cells: transgenic Arabidopsis plants (microsomal fractions, or anti-GFP immunoprecipitate from extracts)"}},
  "note": "Read-outs that look alike come from different tables or passages of the source.",
  "data": [
    {"compound": "CC(C)[C@H](C)[C@@H](O)[C@H](O)[C@@H](C)[C@H]1CC[C@H]2[C@@H]3COC(=O)[C@H]4C[C@H](O)[C@H](O)C[C@]4(C)[C@H]3CC[C@]12C", "note": "[BL, brassinolide]", "values": [
      {"measurement": "Bmax (BL binding sites)", "setting": "BIN1-GFP [1]", "value": "2.66 pmole mg^−1 membrane protein"},
      {"measurement": "BL binding activity", "setting": "[2]", "value": "greatly reduced"},
      {"measurement": "BL binding activity", "setting": "[3]", "value": "greatly reduced"},
      {"measurement": "BL-induced BIN1 phosphorylation", "setting": "BIN1 [4]", "value": "not"},
      {"measurement": "BL-induced BIN1 phosphorylation", "setting": "BIN1 [5]", "value": "also observed"},
      {"measurement": "Bmax (BL binding sites)", "setting": "BIN1 [6]", "value": "0.23 pmole mg^−1 membrane protein"},
      {"measurement": "time to 50% competition by unlabelled BL (reversibility of binding)", "setting": "BIN1 [7]", "value": "less than 1 min"},
      {"measurement": "time for specific BL binding to reach equilibrium", "setting": "BIN1 [7]; incubation at 25° C.", "value": "≤ 15", "unit": "min"}
    ]},
    {"compound": "2,3,22,23-O-tetramethylBL [Me-BL]", "values": [
      {"measurement": "biological activity in plants", "setting": "plants", "value": "lack of biological activity"}
    ]},
    {"compound": "C[C@H]([C@H](O)CCC(C)(C)O)[C@H]1CC[C@@]2(O)C3=CC(=O)[C@@H]4C[C@@H](O)[C@@H](O)C[C@]4(C)[C@H]3CC[C@]12C", "note": "[ecdysone]", "values": [
      {"measurement": "biological activity in plants", "setting": "plants", "value": "lack of biological activity"},
      {"measurement": "IC50", "setting": "BIN1-GFP [8]", "value": "> 10000", "unit": "nM"}
    ]},
    {"compound": "CC(C)[C@H](C)[C@@H](O)[C@H](O)[C@@H](C)[C@H]1CC[C@H]2[C@@H]3CC(=O)[C@H]4C[C@H](O)[C@H](O)C[C@]4(C)[C@H]3CC[C@]12C", "note": "[castasterone]", "values": [
      {"measurement": "activity in bioassays relative to BL", "setting": "plants; bioassays", "value": "about 5 times less active than BL"},
      {"measurement": "relative binding affinity (RBA, ratio between IC50 of a competitor and that of BL)", "setting": "BIN1-GFP [8]; membrane fraction of BIN1-GFP plants", "value": "4-5 times lower than BL"},
      {"measurement": "IC50", "setting": "BIN1-GFP [8]; read-out: 50% inhibition concentration, IC50, of [3H]-BL binding, membrane fraction of BIN1-GFP plants", "value": 340, "unit": "nM"}
    ]}
  ]
}
